Assay results published in patent US20260226493A1, “HERBICIDE RESISTANT PLANTS” (SYNGENTA CROP PROTECTION AG, priority 2023, published 2026).

What was measured:
Quercus robur BioDA = experiment: BioDA enzyme activity with DMSO or herbicide in vitro; format: biochemical; conditions: Quercus robur BioDAΔMTP
From the text: (§1) A pet-24 plasmid containing a DNA sequence encoding each identified variant mutant of BIO3-BIO1 derived from Arabidopsis thaliana from example 5 above, as shown in Table 13 below and as shown in full in SEQ ID NOs: 15 to 155, codon-optimised for expression in E. coli, with an N-terminal 6×His-tag and thrombin cleavage site and under control of a T7 promoter, and was synthesised by Twist Bioscience, in a similar manner to SEQ ID NO:311. These plasmids were then expressed in E. coli BL21 (DE3) bioA with 50 μg/mL kanamycin and 25 μg/mL chloramphenicol selection. Overnight cultures grown at 37° C. were used to inoculate 8×500 mL AIM in shake flasks at a ratio of 1:100. Cultures were grown at 37° C., 200 rpm for 3.5 hours and then overnight at 20° C. Cells were harvested by centrifugation for 30 minutes at 10 000 g. Cells were stored at −80° C. until extraction. 30 g of cell pellet from was thawed in 120 mL of IMAC buffer A (20 mM HEPES pH7.5, 25 mM imidazole, 500 mM sodium chloride, 0.15 mM pyridoxal phosphate, 0.5 mM TCEP, 1× complete Protease Inhibitor Tablet (Roche)). The resuspension was passed through a cell disrupter at 18 000 PSI and centrifuged at 50 000 g for 25 minutes at 4° C. The His-tagged BIO3-BIO1 protein was purified from the extract supernatant on an AKTA avant chromatography system (Cytiva) using a HisTrap FF column and eluted in IMAC buffer B ((20 mM HEPES pH7.5, 500 mM imidazole, 500 mM sodium chloride, 0.15 mM pyridoxal phosphate, 0.5 mM TCEP) followed by SEC using a HiLoad 26/60 Superdex200 column in SEC buffer (25 mM HEPES pH7.5, 150 mM sodium chloride, 0.15 mM pyridoxal phosphate, 0.5 mM TCEP). Protein concentration was measured and calculated using the absorbance at 280 nm. Extracts were diluted 1 in 4 and 10 uL was analysed by SDS PAGE.
(§2) To measure BIO3-BIO1 mutant enzyme activity in the presence of herbicide, herbicides were incubated with 20 μL of enzyme mix (100 mM EPPS pH 8.6, 0.1 mM pyridoxal phosphate, 0.1 mg/mL BSA, 50 nM BIO3-BIO1 enzyme) for 10 minutes at 20° C. in a well of a 96-well half-area black plate, followed by the addition of 20 μL of substrate mix (final concentration of 100 mM EPPS pH 8.6, 0.1 mM pyridoxal phosphate, 0.1 mg/mL BSA, 100 μM spermidine, 20 μM KAPA, 100 mM NaCO3) and further incubation for 75 minutes at 20° C. The reaction was terminated by the addition of 50 μL of derivatisation mix (final concentration of 250 mM borate NaOH pH 9.4, 3.6 mM o-phthalaldehyde, 7 mM β-mercaptoethanol, 17% (v/v) ethanol, 3.6% (v/v) methanol). The fluorescent product produced by the reaction of DAPA with o-phthalaldehyde and 7 mM β-mercaptoethanol was measured at 470 nm after excitation at 410 nm. The percentage inhibition was calculated as the activity in the presence of one of three concentrations of each herbicide compound A to M (note that the compounds labelled as A to M are identified hereinabove in the relevant section of the description) as a percentage of the activity in DMSO (Table 12 and 13). The percentage activity versus WT was also calculated and is shown in Table 13 and 14 (NT indicates mutation not tested in table 13, note that these mutations are tested at different compound concentrations for compounds L, M and C, and the results are shown in table 14).
(§3) The activity of various wild-type BioDA and variant enzymes was also tested when treated with DMSO or herbicide in vitro.
(§4) Protein of Schizosaccharomyces japonicus BioDA (SEQ ID NO:13), Nannochloropsis gaditana BioDA (SEQ ID NO:3), Selaginella moellendorffii BioDA (SEQ ID NO:319), Quercus robur BioDA (SEQ ID NOA11), Ostreococcus tauri BioDA (SEQ ID NO:9), and the variants of Ostreococcus tauri BioDA A374D, F332A and P407A (SEQ ID Nos:321-323) was prepared using the method in Example 6. BioDA enzyme activity in the presence of herbicide or DMSO in vitro for each of the proteins was assayed according to the enzyme assay method above. The results are shown in Table 26 provided below in the “TABLES” section.

[1] = test system: Selaginella moellendorffii BioDA; experiment: as above; format: biochemical; conditions: Selaginella moellendorcffii BioDAΔMTP
From the text: as §1, §2, §3, §4

[2] = test system: Nannochloropsis gaditana BioDA; experiment: as above; format: biochemical
From the text: as §1, §2, §3, §4

[3] = test system: Schizosaccharomyces japonicus BioDA; experiment: as above; format: biochemical
From the text: as §1, §2, §3, §4

Ostreococcus tauri BioDA = experiment: as above; format: biochemical; conditions: Ostreococcus tauri BioDAΔMTP
From the text: as §1, §2, §3, §4

[4] = test system: Stenotrophomonas maltophilia BioA; experiment: BioA enzyme activity with DMSO or herbicide in vitro; format: biochemical; conditions: spermidine in substrate mix
From the text: as §1, §2
(§5) Protein of Escherichia coli BioA (SEQ ID NO:159), Pantoea ananatis BioA (SEQ ID NO:167), Streptomyces viridochromogenes BioA (SEQ ID NO:170), Cryptosporidium andersoni BioA (SEQ ID NO:160), Stenotrophomonas maltophilia BioA (SEQ ID NO:171), Chroococcidiopsis BioA (SEQ ID NO:184), Pedobacter hartonius BioA (SEQ ID NO:181), Chitinophaga filiformis BioA (SEQ ID NO:180), Tenacibaculum adriaticum BioA (SEQ ID NO:185) and Bacillus subtilis BioA (SEQ ID NO:166) was prepared using the method in Example 6. BioA enzyme activity in the presence of herbicide or DMSO in vitro for each of the proteins was assayed according to the enzyme assay method in Example 6, except in some reactions spermidine was replaced with 2 mM S-Adenosyl methionine.

[5] = test system: Pedobacter hartonius BioA; experiment: as above; format: biochemical; conditions: spermidine in substrate mix
From the text: as §1, §2, §5

[6] = test system: Chitinophaga filiformis BioA; experiment: as above; format: biochemical; conditions: spermidine in substrate mix
From the text: as §1, §2, §5

Escherichia coli BioA = molecular target: T1, Escherichia coli BioA (Escherichia coli, UniProt P12995); experiment: as above; format: biochemical; conditions: SAM in substrate mix, read-out: % Inhibition relative to DMSO treatment
T1 construct: 6xHis-tag (N); thrombin cleavage site (N); made in house; host or cells: E. coli BL21 (DE3) bioA
T1 sequence (P12995 whole entry): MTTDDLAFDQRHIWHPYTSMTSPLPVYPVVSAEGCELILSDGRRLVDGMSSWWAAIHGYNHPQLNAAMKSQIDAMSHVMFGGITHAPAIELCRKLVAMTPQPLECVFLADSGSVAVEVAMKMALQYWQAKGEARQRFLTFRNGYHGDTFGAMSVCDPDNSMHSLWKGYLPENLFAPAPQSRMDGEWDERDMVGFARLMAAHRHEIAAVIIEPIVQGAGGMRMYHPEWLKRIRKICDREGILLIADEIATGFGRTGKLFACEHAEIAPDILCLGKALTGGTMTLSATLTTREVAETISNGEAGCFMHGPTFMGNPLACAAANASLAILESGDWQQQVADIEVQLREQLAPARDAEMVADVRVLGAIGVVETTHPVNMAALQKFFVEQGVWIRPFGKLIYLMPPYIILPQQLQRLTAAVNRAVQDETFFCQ
From the text: as §1, §2, §5

Chroococcidiopsis BioA = experiment: as above; format: biochemical, Chroococcidiopsis sp. CCMEE 29; conditions: spermidine in substrate mix
From the text: as §1, §2, §5

In the case of `CCn1c(C)c(-c2ccc(F)cc2F)c(=O)c(C(=O)O)c1-c1ccc(Cl)c(Cl)c1` [Compound C, 2-(3,4-dichlorophenyl)-5-(2,4-difluorophenyl)-1-ethyl-6-methyl-4-oxo-pyridine-3-carboxylic acid], the “% Inhibition relative to DMSO treatment” value (Quercus robur BioDA; 0.5 μM) is reported as 32%, the “% Inhibition relative to DMSO treatment” value ([1]; 0.5 μM) is reported as 9% and the “% Inhibition relative to DMSO treatment” value ([2]; 0.5 μM) is reported as 8%. For the same compound, the “% Inhibition relative to DMSO treatment” value ([3]; 0.5 μM) was 17%, the “% Inhibition relative to DMSO treatment” value (Ostreococcus tauri BioDA; 0.5 μM) was 0% and the “% Inhibition relative to DMSO treatment” value ([4]; 0.5 μM) was 0%. For the same compound, the “% Inhibition relative to DMSO treatment” value ([5]; 0.5 μM) was 0%, the “% Inhibition relative to DMSO treatment” value ([6]; 0.5 μM) was 12% and the inhibition at 0.5 µM (Escherichia coli BioA) was 8%. The “% Inhibition relative to DMSO treatment” value (Chroococcidiopsis BioA; 0.5 μM) was 2%.

`CCn1c(Cn2ccc(C(F)(F)F)n2)cc(=O)c(C(=O)O)c1-c1ccc(Cl)c(Cl)c1` [Compound L, 2-(3,4-dichlorophenyl)-1-ethyl-4-oxo-6-[[3-(trifluoromethyl)pyrazol-1-yl]methyl]pyridine-3-carboxylic acid] was tested, and the “% Inhibition relative to DMSO treatment” value (Quercus robur BioDA; 0.5 μM) was 83%, the “% Inhibition relative to DMSO treatment” value ([1]; 0.5 μM) was 9% and the “% Inhibition relative to DMSO treatment” value ([2]; 0.5 μM) was 6%. For the same compound, the “% Inhibition relative to DMSO treatment” value ([3]; 0.5 μM) was 0%, the “% Inhibition relative to DMSO treatment” value ([3]; 31 μM) was 55% and the “% Inhibition relative to DMSO treatment” value ([3]; 500 μM) was 94%. For the same compound, the “% Inhibition relative to DMSO treatment” value (Ostreococcus tauri BioDA; 0.5 μM) was 5%, the “% Inhibition relative to DMSO treatment” value (Ostreococcus tauri BioDA; 31 μM) was 83% and the “% Inhibition relative to DMSO treatment” value (Ostreococcus tauri BioDA; 500 μM) was 98%. For the same compound, the “% Inhibition relative to DMSO treatment” value ([4]; 0.5 μM) was 0%, the “% Inhibition relative to DMSO treatment” value ([4]; 31 μM) was 0% and the “% Inhibition relative to DMSO treatment” value ([4]; 500 μM) was 16%. The “% Inhibition relative to DMSO treatment” value ([5]; 0.5 μM) was 2%, the “% Inhibition relative to DMSO treatment” value ([6]; 0.5 μM) was 11% and the inhibition at 0.5 µM (Escherichia coli BioA) was 4%. The inhibition at 31 µM (Escherichia coli BioA) was 8%, the inhibition at 500 µM (Escherichia coli BioA) was 35% and the “% Inhibition relative to DMSO treatment” value (Chroococcidiopsis BioA; 0.5 μM) was 15%.

`CC(O)C(N)CCCCC(=O)O.Cl` (stereo not shown) [Compound B, [5-carboxy-1-(1-hydroxyethyl)pentyl]ammonium chloride] was tested, and the “% Inhibition relative to DMSO treatment” value (Quercus robur BioDA; 200 μM) was 93%, the “% Inhibition relative to DMSO treatment” value ([1]; 200 μM) was 64% and the “% Inhibition relative to DMSO treatment” value ([2]; 200 μM) was 92%. For the same compound, the “% Inhibition relative to DMSO treatment” value ([3]; 200 μM) was 70%, the “% Inhibition relative to DMSO treatment” value (Ostreococcus tauri BioDA; 200 μM) was 62% and the “% Inhibition relative to DMSO treatment” value ([4]; 200 μM) was 50%. For the same compound, the “% Inhibition relative to DMSO treatment” value ([5]; 200 μM) was 96%, the “% Inhibition relative to DMSO treatment” value ([6]; 200 μM) was 12% and the inhibition at 31 µM (Escherichia coli BioA) was 4%. The inhibition at 200 µM (Escherichia coli BioA; 200 μM) was 9%, the inhibition at 500 µM (Escherichia coli BioA) was 23% and the “% Inhibition relative to DMSO treatment” value (Chroococcidiopsis BioA; 200 μM) was 99%.

In the case of `CCn1c(C)c(-c2cc(OC(F)(F)F)ccc2Cl)c(=O)c(C(=O)O)c1-c1ccc(Cl)c(Cl)c1` [Compound D, 5-[2-chloro-5-(trifluoromethoxy)phenyl]-2-(3,4-dichlorophenyl)-1-ethyl-6-methyl-4-oxo-pyridine-3-carboxylic acid], the “% Inhibition relative to DMSO treatment” value (Quercus robur BioDA; 0.5 μM) is reported as 88%, the “% Inhibition relative to DMSO treatment” value ([1]; 0.5 μM) is reported as 75% and the “% Inhibition relative to DMSO treatment” value ([2]; 0.5 μM) is reported as 14%. The “% Inhibition relative to DMSO treatment” value ([3]; 0.5 μM) was 87%, the “% Inhibition relative to DMSO treatment” value (Ostreococcus tauri BioDA; 0.5 μM) was 0% and the “% Inhibition relative to DMSO treatment” value (Ostreococcus tauri BioDA; 5 μM) was 36%. For the same compound, the “% Inhibition relative to DMSO treatment” value ([4]; 0.5 μM) was 76%, the “% Inhibition relative to DMSO treatment” value ([5]; 0.5 μM) was 7% and the “% Inhibition relative to DMSO treatment” value ([6]; 0.5 μM) was 0%. For the same compound, the inhibition at 0.5 µM (Escherichia coli BioA) was 6% and the “% Inhibition relative to DMSO treatment” value (Chroococcidiopsis BioA; 0.5 μM) was 0%.

`CCOC(=O)c1nn(-c2ccc3c(c2)OC(F)(F)C(F)(F)O3)c2cccc(C(C)=O)c2c1=O` [Compound A, ethyl 5-acetyl-4-oxo-1-(2,2,3,3-tetrafluoro-1,4-benzodioxin-6-yl)cinnoline-3-carboxylate] was tested, and the “% Inhibition relative to DMSO treatment” value (Quercus robur BioDA; 25 μM) was 72%, the “% Inhibition relative to DMSO treatment” value ([1]; 25 μM) was 25% and the “% Inhibition relative to DMSO treatment” value ([2]; 25 μM) was 5%. The “% Inhibition relative to DMSO treatment” value ([3]; 25 μM) was 2%, the “% Inhibition relative to DMSO treatment” value (Ostreococcus tauri BioDA; 25 μM) was 0% and the “% Inhibition relative to DMSO treatment” value ([4]; 25 μM) was 0%. The “% Inhibition relative to DMSO treatment” value ([5]; 25 μM) was 6%, the “% Inhibition relative to DMSO treatment” value ([6]; 25 μM) was 0% and the inhibition at 25 µM (Escherichia coli BioA; 25 μM) was 6%. The “% Inhibition relative to DMSO treatment” value (Chroococcidiopsis BioA; 25 μM) was 0%.
